One compound from US20210322443A1 (MAPREG, priority 2015, published 2021) can be followed below.

For test [1], the target named is Muscarinic (Cholinergic) M5 (Homo sapiens, UniProt P08912). The experiment in a line: CNS receptor binding assay. The following applies: [3H] 4-DAMP, Human recombinant (CHO cells), read-out: % Inhibition of control specific binding.
The target of the next test is Dopaminergic D3 (Homo sapiens, UniProt P35462). The experiment in a line: CNS receptor binding assay. The settings on record: read-out: % Inhibition of control specific binding.
Chain of Dopaminergic D3 (P35462 whole entry): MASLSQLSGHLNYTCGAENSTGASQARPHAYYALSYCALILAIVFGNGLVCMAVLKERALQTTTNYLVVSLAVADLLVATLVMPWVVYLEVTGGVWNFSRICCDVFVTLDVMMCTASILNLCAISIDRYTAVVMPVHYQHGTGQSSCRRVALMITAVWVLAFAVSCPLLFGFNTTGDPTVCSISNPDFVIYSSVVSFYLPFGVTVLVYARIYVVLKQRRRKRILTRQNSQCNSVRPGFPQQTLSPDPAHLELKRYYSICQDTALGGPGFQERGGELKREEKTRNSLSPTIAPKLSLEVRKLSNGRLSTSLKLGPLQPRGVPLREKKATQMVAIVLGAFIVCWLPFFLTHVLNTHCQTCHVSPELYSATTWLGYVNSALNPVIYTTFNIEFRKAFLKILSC
The target of test [2] is Serotoninergic Transporter (Homo sapiens, UniProt P31645). In words: CNS receptor binding assay. The following applies: [3H] imipramine, Human recombinant (CHO cells), read-out: % Inhibition of control specific binding.
Chain of Serotoninergic Transporter (P31645 whole entry): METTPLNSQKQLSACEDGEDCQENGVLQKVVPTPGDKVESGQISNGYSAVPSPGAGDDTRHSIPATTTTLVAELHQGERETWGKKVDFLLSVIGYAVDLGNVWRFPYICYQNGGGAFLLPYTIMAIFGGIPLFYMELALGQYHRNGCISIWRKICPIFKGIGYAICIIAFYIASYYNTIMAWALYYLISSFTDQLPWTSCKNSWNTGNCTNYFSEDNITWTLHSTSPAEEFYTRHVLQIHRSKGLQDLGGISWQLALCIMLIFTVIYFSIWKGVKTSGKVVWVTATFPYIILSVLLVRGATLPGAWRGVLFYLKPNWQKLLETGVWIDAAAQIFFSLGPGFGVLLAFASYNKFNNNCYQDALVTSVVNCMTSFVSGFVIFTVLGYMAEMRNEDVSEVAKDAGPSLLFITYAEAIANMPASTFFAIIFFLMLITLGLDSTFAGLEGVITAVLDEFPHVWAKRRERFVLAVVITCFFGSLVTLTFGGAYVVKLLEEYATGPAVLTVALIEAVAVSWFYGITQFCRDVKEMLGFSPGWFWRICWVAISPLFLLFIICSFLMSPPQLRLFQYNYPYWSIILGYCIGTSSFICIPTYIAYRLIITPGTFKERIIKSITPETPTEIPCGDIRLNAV
Another test concerns the target Androgen Receptor (AR) (Rattus norvegicus, UniProt P15207). In words: Radioligand binding assay, steroid hormone receptors. The following applies: 1.5 nM [3H] Mibolerone, Rat recombinant E. coli, read-out: % inhibition of specific binding. On the procedure:
Binding affinity of 3β-methoxy-PREG (MAP4343) for receptors of steroid hormones was evaluated using radioligand binding assays.

The target in test [3] is Muscarinic (Cholinergic) M2 (Homo sapiens, UniProt P08172). In words: CNS receptor binding assay. The settings on record: [3H] AF-DX 384, Human recombinant (CHO cells), read-out: % Inhibition of control specific binding.
Chain of Muscarinic (Cholinergic) M2 (P08172 whole entry): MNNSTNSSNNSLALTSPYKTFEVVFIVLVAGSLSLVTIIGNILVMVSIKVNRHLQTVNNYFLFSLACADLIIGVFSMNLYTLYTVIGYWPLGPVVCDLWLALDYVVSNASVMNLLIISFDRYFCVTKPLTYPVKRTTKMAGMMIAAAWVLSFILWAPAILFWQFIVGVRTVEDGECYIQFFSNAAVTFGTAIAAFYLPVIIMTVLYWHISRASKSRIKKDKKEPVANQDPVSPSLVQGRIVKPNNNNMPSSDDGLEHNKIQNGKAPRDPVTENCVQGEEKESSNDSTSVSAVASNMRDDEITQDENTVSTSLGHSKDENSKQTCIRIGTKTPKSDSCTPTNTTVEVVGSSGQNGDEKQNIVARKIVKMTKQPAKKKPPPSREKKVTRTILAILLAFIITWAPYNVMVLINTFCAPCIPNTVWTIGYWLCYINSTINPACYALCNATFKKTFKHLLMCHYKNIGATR
The target in another test is Serotoninergic 5-HT2A (Homo sapiens, UniProt P28223). In words: CNS receptor binding assay. The following applies: [3H] ketanserin, Human recombinant (HEK-293 cells), read-out: % Inhibition of control specific binding.
Chain of Serotoninergic 5-HT2A (P28223 whole entry): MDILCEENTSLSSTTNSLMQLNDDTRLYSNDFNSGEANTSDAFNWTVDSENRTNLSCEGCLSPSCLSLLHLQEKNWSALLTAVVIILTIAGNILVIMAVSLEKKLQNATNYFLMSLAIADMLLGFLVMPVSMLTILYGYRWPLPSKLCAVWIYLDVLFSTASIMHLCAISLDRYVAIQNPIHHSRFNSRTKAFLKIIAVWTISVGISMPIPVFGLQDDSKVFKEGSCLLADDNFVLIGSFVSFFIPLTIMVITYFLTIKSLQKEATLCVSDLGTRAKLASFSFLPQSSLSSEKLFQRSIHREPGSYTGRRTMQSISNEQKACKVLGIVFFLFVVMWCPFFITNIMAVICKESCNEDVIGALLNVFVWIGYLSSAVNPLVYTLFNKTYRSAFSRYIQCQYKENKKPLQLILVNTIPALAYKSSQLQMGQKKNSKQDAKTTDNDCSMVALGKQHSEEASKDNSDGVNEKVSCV
Test [4] deals with 80 different CNS neurotransmitters receptors. In words: Screen for in vitro affinity to 80 CNS receptors. It counts as binding. The settings on record: significant = inhibition higher than 50%.
Test [5] deals with T1, human progesterone receptor(PR) (Homo sapiens, UniProt P06401).
T1 construct: expressed in transfected cells; host or cells: HEK293T
T1 sequence (P06401 1-933): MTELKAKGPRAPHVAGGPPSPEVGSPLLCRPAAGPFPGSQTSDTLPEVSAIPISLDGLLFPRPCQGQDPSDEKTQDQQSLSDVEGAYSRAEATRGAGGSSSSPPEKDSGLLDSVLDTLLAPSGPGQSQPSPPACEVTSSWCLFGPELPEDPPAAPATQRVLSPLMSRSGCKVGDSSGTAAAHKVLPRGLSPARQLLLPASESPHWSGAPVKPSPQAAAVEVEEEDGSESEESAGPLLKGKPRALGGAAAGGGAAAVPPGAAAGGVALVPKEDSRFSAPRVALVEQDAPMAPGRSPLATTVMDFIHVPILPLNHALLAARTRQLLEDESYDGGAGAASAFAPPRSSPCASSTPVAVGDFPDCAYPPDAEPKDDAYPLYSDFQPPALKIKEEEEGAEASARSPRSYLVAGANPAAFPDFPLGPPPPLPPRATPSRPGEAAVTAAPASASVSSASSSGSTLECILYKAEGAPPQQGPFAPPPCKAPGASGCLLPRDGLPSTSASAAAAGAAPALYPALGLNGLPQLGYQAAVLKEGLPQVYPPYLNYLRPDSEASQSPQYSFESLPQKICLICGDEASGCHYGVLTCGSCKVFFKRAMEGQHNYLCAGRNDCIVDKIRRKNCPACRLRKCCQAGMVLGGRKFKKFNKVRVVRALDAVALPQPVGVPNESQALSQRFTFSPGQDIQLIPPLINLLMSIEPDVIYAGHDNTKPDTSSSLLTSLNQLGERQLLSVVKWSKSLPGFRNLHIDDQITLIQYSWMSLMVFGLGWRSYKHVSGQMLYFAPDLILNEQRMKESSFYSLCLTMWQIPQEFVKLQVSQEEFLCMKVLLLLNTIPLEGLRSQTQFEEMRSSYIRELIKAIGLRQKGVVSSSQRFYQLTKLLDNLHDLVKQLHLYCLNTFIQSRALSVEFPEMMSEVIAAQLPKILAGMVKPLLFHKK
In words: Progesterone receptor agonist transactivation (MMTV-luciferase) in transfected HEK293T cells. Format: cell-based. The settings on record: 24 hours, increasing amounts, FIG. 1. On the procedure: The main experimental setting used is the following: HEK293T cells were transiently transfected, using calcium phosphate precipitation technology, with expression vectors pSG5hPR (which permits expression of human progesterone receptor(PR)), pFC31-luc (contains the luciferase gene under the control of the MMTV promoter, which is in turn activated by binding of a progestin to progesterone receptor) and pcbetagal (which permits expression of betagalactosidase), and cultured during 24 hours with increasing amounts of various compositions: • 1. […] Test of progesterone receptor […] activity: transfected cells were cultured with progesterone (1 nM) and increasing amounts of RU486 (a well-known progesterone receptor antagonist) or 3-methoxy-pregnenolone. • With this setting, a compound with progesterone receptor antagonist activity competes with progesterone for the occupation of progesterone receptor and results in a progressive loss of transactivation activity when the amount of this compound is increased compared to progesterone.

Another test concerns the target Noradrenergic β2 (Homo sapiens, UniProt P07550). The experiment in a line: CNS receptor binding assay. The settings on record: read-out: % Inhibition of control specific binding.
The target in a further test is Histaminergic H2 (Homo sapiens, UniProt P25021). The experiment in a line: CNS receptor binding assay. The following applies: read-out: % Inhibition of control specific binding.
Chain of Histaminergic H2 (P25021 whole entry): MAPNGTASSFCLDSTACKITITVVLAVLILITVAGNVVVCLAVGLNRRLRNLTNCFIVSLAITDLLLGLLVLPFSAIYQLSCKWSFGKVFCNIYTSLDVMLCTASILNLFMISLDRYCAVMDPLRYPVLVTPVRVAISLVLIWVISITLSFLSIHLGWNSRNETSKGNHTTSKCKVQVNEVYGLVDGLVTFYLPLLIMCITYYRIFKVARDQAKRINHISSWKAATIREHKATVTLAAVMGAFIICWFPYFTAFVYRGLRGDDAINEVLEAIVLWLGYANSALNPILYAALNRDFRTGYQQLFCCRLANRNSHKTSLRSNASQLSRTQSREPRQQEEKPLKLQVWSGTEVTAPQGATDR

Chain of Noradrenergic β2 (P07550 whole entry): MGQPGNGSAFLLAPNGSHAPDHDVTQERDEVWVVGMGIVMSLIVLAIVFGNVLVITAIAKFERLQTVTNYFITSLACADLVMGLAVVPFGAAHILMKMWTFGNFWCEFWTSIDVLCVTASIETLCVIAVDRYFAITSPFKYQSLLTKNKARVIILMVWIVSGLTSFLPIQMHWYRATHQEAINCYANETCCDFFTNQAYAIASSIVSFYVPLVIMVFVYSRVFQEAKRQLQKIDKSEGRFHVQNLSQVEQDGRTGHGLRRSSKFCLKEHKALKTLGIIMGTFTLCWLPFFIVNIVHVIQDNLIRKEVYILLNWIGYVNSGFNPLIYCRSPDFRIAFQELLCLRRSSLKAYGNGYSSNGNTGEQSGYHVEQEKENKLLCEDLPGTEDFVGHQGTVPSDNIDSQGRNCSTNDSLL
Chain of Androgen Receptor (AR) (P15207 whole entry S389L): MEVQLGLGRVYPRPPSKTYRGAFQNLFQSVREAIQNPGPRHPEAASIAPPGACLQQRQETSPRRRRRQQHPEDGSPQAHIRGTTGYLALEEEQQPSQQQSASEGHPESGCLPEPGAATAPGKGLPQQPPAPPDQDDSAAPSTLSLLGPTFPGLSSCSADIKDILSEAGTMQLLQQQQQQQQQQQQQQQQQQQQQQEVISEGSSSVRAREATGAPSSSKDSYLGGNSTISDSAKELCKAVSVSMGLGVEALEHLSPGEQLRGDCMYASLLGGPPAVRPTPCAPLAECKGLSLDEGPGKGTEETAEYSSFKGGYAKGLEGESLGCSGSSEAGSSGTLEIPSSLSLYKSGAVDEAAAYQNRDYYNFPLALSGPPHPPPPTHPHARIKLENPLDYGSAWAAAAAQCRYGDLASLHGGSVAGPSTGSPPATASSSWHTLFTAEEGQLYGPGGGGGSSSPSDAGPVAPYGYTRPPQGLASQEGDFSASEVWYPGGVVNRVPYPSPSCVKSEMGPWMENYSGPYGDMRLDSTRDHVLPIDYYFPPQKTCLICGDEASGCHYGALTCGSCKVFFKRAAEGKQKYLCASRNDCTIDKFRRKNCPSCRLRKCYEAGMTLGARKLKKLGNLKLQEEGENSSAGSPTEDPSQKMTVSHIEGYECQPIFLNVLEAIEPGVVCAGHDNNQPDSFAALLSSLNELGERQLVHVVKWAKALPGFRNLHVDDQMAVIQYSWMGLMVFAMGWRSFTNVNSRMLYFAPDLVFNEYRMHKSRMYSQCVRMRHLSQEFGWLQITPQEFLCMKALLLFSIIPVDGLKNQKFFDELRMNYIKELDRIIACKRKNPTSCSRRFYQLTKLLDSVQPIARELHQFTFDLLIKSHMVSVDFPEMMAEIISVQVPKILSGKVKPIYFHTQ
Chain of Muscarinic (Cholinergic) M5 (P08912 whole entry): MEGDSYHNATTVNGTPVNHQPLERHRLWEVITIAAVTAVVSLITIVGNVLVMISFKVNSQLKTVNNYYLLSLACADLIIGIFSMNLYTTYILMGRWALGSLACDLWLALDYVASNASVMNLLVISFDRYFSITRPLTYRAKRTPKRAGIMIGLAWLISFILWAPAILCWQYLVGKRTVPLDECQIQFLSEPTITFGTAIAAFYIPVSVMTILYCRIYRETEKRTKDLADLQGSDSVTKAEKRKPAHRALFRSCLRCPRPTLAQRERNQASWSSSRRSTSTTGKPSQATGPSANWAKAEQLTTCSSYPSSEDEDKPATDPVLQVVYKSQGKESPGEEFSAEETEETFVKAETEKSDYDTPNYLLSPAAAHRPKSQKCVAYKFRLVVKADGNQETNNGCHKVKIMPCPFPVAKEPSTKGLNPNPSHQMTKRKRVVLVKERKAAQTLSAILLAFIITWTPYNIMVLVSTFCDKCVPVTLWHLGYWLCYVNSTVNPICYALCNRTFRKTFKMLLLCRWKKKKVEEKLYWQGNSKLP

In the case of `CO[C@H]1CC[C@@]2(C)C(=CC[C@H]3[C@@H]4CC[C@H](C(C)=O)[C@@]4(C)CC[C@@H]32)C1` [MAP4343, 3β-methoxy-pregna-5-ene-20-one], the inhibition at 10 µM in test [1] is 12%; at Dopaminergic D3 it was 8%; in [2], 3%; on Androgen Receptor (AR), less than 25%; in [3], 20%; on Serotoninergic 5-HT2A it was 1%. Besides, the inhibition at 10 µM at Noradrenergic β2 is -4%; at Histaminergic H2, -21%. For the same compound, in test [4], the “in vitro affinity for any tested receptor” value is recorded as “no significant affinity for any tested receptor”. The “progesterone receptor agonist activity (transactivation, luciferase expression)” value in test [5] was “does not have progesterone receptor agonist activity”.
